# Measured values published in the supplement of paper PMC10307832.
# How the values were obtained:
# Doxorubicin + Foretinib = compound: COc1cccc2c1C(=O)c1c(O)c3c(c(O)c1C2=O)C[C@@](O)(C(=O)CO)C[C@@H]3O[C@H]1C[C@H](N)[C@H](O)[C@H](C)O1 [Doxorubicin] + COc1cc2c(Oc3ccc(NC(=O)C4(C(=O)Nc5ccc(F)cc5)CC4)cc3F)ccnc2cc1OCCCN1CCOCC1 [Foretinib] (partner 0.25 µM); assay: relative viability (nuclei count vs DMSO), 5 days (fraction); higher = more cells survive
# Procedure, shortened: (§1)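 Relative viability equals treated-well nuclei counts divided by vehicle-well nuclei counts. Counts came from 4× images of lung cancer cell lines grown in 1536-well plates for 5 days after pin-tool dosing on the day after seeding. Dosing used one drug alone or a fixed anchor-drug dose plus five library-drug doses (not always all listed) in √10 steps, and values are medians of duplicate plates.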
# BAY61-3606 + Navitoclax = compound: COC1=C(C=C(C=C1)C2=CC3=NC=CN3C(=N2)NC4=C(C=CC=N4)C(=O)N)OC [BAY61-3606] + CC1(C)CCC(c2ccc(Cl)cc2)=C(CN2CCN(c3ccc(C(=O)NS(=O)(=O)c4ccc(N[C@H](CCN5CCOCC5)CSc5ccccc5)c(S(=O)(=O)C(F)(F)F)c4)cc3)CC2)C1 [Navitoclax] (partner 0.5 µM); assay: as above
# Procedure, shortened: as §1
Cell Line,relative viability (Doxorubicin + Foretinib; first compound 0.001 µM),relative viability (Doxorubicin + Foretinib; first compound 0.003162 µM),relative viability (Doxorubicin + Foretinib; first compound 0.01 µM),relative viability (Doxorubicin + Foretinib; first compound 0.03162 µM),relative viability (Doxorubicin + Foretinib; first compound 0.1 µM),relative viability (BAY61-3606 + Navitoclax; first compound 0.02 µM),relative viability (BAY61-3606 + Navitoclax; first compound 0.06325 µM),relative viability (BAY61-3606 + Navitoclax; first compound 0.2 µM),relative viability (BAY61-3606 + Navitoclax; first compound 0.6325 µM),relative viability (BAY61-3606 + Navitoclax; first compound 2 µM)
HCC-78,0.577,0.627,0.528,0.517,0.499,0.915,0.652,0.905,0.802,0.801
COR-L23,0.964,1.06,0.918,0.64,0.221,1.06,1.1,1.02,1.11,0.813
HCC-827,1.07,1,1.05,0.984,0.982,1,0.998,1.06,1.08,1.02
NCI-H1355,0.97,1.01,0.884,0.91,0.897,1.08,0.962,0.865,0.995,0.721
RERF-LC-KJ,0.9,0.944,0.81,0.761,0.867,0.759,0.9,0.975,0.83,0.876
NCI-H2126,1.29,1.12,0.884,1.12,1.28,0.88,0.823,0.769,0.759,0.742
BEN,0.978,0.678,0.612,0.49,0.582,0.0718,0.0633,0.0644,0.0773,0.0651
LCLC-97TM1,0.977,0.861,0.895,0.882,0.891,0.393,–,0.386,0.417,0.326
EKVX,0.735,0.891,0.912,0.831,0.704,1.04,1.04,0.884,0.959,0.938
NCI-H1299,1.1,1.11,1.1,1.16,1.05,1.05,1.06,1.05,1.07,1.05
ABC-1,1.48,1.13,1.02,0.676,0.339,–,–,–,–,–
PC-14,1,0.967,0.998,0.912,0.931,1.04,1.11,0.983,1.01,0.982
NCI-H1651,0.842,0.929,0.737,0.48,0.222,1.21,1.09,0.964,1.17,0.909
NCI-H2087,–,1.1,1.03,0.851,0.693,0.896,1.06,0.981,0.922,0.82
NCI-H1944,0.848,0.945,0.908,0.812,0.869,1.12,1.1,1.01,1.02,1.04
LCLC-103H,0.767,0.82,0.786,0.66,0.758,–,–,–,–,–
COR-L 105,1.02,0.943,0.9,0.62,0.7,0.79,0.714,0.624,0.812,0.409
NCI-H1437,1.16,1.26,1.24,1.1,0.621,1.1,1.16,1.06,1.12,1.06
H3255,0.791,0.821,0.973,0.818,0.863,0.555,0.54,0.502,0.494,0.609
NCI-H2009,1.13,1.18,1.15,0.947,0.946,1.14,1.22,1.14,1.15,1.11
NCI-H1755,0.981,0.949,0.903,0.971,0.937,1.03,1.02,0.993,1.06,0.782
IA-LM,1.04,1.13,1.2,1.1,1.06,0.812,–,0.827,0.793,0.725
LU99A,0.832,0.915,0.769,0.721,0.802,0.845,0.762,0.984,0.828,0.396
NCI-H1563,0.876,0.878,0.728,0.58,0.502,–,–,–,–,–
NCI-H650,0.93,0.965,1.08,0.834,0.954,–,–,–,–,–
SW 900,0.929,1.06,0.727,0.727,0.958,–,–,–,–,–
NCI-H1792,–,–,–,–,–,0.663,0.637,0.646,0.596,0.696
NCI-H2342,1.08,1.08,1.06,0.791,1.17,–,–,–,–,–
NCI-H358,0.743,0.737,0.341,0.151,0.122,–,–,–,–,–
NCI-H1623,0.766,0.815,0.895,0.798,0.78,–,–,–,–,–
